Laboratory results from patent publication US11654159B2, “Therapeutic use of electroacupuncture-induced mesenchymal stem cells” (UNIVERSITY OF FLORIDA RESEARCH FOUNDATION, INC., priority 2016, dated 2023).

Columns and labels:
[1] = system: rat MSCs (Lin− CD90+CD44hi cells); settings: rats
Method: (§1) Sprague-Dawley rats were injected with epinephrine (SO, El Monte, Ca) intraperitoneally at 50 μg/kg. Uninjected rats were used as baseline controls. Rats were euthanized at 2, 4, and 6 hours post injection. Blood was collected and processed for flow cytometry as described below. A separate cohort of rats was injected IP with 50 mg/kg dopamine for 4 days consecutively. After last injection, rats were euthanized at 2 and 4 hours post injection. Blood was collected and processed for flow cytometry as described below.
PBMCs were isolated using lympholyte M (Cedarlene, Ontario, Canada) density gradient separation and centrifuged at room temperature at 740×g for 30 minutes.
PBMCs were stained with the MPFC protocols in real-time within 24 h after blood collection at the Angio BioCore, IUPUI, for the identification of MSCs as previously described.^50-53 23 PBMCs were incubated with Fc blocking reagent (Miltenyi Biotec or BD biosciences) for 10 minutes on ice and stained as published^50. Cells were incubated with titrated antibodies for 30 minutes at 4° C., washed twice in PBS with 2% FBS, fixed in 1% paraformaldehyde (Tousimis, Rockville, Md.), and run on a BD LSRII flow cytometer (BD) equipped with a 405 nm violet laser, 488 nm blue laser and 633 nm red laser. Data were acquired uncompensated and exported as FCS 3.0 files, and analyzed utilizing FlowJo software, version 9.7.5 or version X (Tree Star, Inc, Ashland, Oreg.). “Fluorescent minus one” (FMO) gating controls were used to ensure proper gating of positive events^50,52,54. In order to resolve the rare and/or dim populations of interest, specific antigen and fluorochrome conjugate coupling was optimized for the six-antibody plus a viability marker staining panel^50-54. BD compBeads (BD Biosciences) were used for color compensations.
Rat MSC were gated sequentially on FMO gates for LIVE/DEAD^−CD45^−erythroid cells^−CD31^−CD11b^− CD90^+CD44H^+ cells.

[2] = system: MSCs (Lin− CD90+CD44hi cells); assay: Pharmacological disinhibition of the dorsomedial regions of the tuberal hypothalamus: blood cells by flow cytometry; type: in vivo, rat; settings: rats
Method: Adult male Sprague-Dawley rats (300-350 g; Harlan Laboratories, Indianapolis, Ind.), were housed in plastic cages under standard environmental conditions (22° C.; 12/12 light/dark cycle; lights on at 7:00 A.M.) for 7-10 days prior to the surgical manipulations. Food and water were provided ad libitum. All experiments were conducted in accordance with the Guide for the Care and Use of Laboratory Animals, 8th Edition (Institute for Laboratory Animal Research, The National Academies Press, Washington, D.C., 2011) and the guidelines of the IUPUI Institutional Animal Care and Use Committee.
Once rats were anesthetized with an isoflurane system (MGX Research Machine; Vetamic, Rossville, Ind.), they were placed in a small animal stereotaxic frame (Model 963 Ultra Precise Frame, Kopf, Tujunga, Calif.). […]

MSCs = assay: Propranolol pretreatment before EA: MSC mobilization; type: in vivo, mice
From the text: Blood was collected and processed for flow cytometry as described below.

plasma NE = settings: rats
Method: as §1
NE levels were measured in EA-treated horses using NE ELISA kit (ALPCO™, Salem, N.H.) according to the manufacturer's instructions. Plasma NE, Epi and DA levels were measured in EA treated rats using the TriCAT ELISA kit (ALPCO™).

CNC[C@H](O)c1ccc(O)c(O)c1 [epinephrine]
MSCs in peripheral blood ([1]; epinephrine 50 μg/kg intraperitoneally, vs uninjected baseline, p=0.0125): significant elevation | time of increase of rat MSCs in the circulation ([1]; epinephrine IP): 6 h

C[N+]1(C)CCc2cc3c(cc2[C@H]1[C@@H]1OC(=O)c2c1ccc1c2OCO1)OCO3.[I-] [bicuculline methiodide]
total number of cells in the blood ([2]; 30 pmol into tuberal hypothalamus, p=0.412): did not alter | percentage of MSCs (Lin− CD90+CD44hi cells) ([2]; highest dose 50 pmol, 4 hours post injection, p=0.027): did increase

CC(C)NCC(O)COc1cccc2ccccc12 (stereo not drawn) [propranolol]
mobilization of MSCs by EA (MSCs; mice pretreated for 24 hours prior to EA, p<0.01): prevented | MSC mobilization by EA (MSCs; pretreatment, at 4 hours, compared to untreated animals, p=0.01): inhibited

NCCc1ccc(O)c(O)c1 [dopamine]
NE levels (plasma NE; dopamine 50 mg/kg for 4 consecutive days): pointed increase | time of peak in plasma NE concentration post administration (plasma NE; dopamine IP): 2 h | time of increase in circulating MSCs ([1]; dopamine IP): 2 h
